According to PubChem BioAssay AID1996:
Converted amounts (≈) assume the structure as drawn.

Conditions: buffer; pH 7.4; 200.0 µM

First: COC(=O)c1sccc1NC(=O)c1c(Cl)cccc1Cl
Second: CC(C)OC(=O)NCCOC(=O)Nc1ccccc1Cl
The solubility kinetic of the first is lower: 0.7 µg/mL (≈ 2.12 µM) for the first, over 45.1 µg/mL for the second.

Compared with Cc1cccc(OCCCC(=O)N2CCCCCC2)c1C, Cc1ccc(C)c(N(CC(=O)N2CCCCCC2)S(C)(=O)=O)c1 is 1.7-fold higher in solubility kinetic: 26.9 µg/mL (≈ 92.9 µM) for the first, 46.9 µg/mL (≈ 139 µM) for the second.

Going from O=C(OCC(=O)N1CCc2ccccc21)c1ccc(Br)o1 to O=C(CNC(=O)c1ccccc1Cl)OC1CCOC1=O (stereo unspecified), the solubility kinetic rises from 3.7 µg/mL (≈ 10.6 µM) to 42.1 µg/mL (≈ 141 µM) (11-fold).

OCC1(CO)COC(/C=C/c2ccccc2)=N1 and S=C1NCN(CCc2ccccc2)CN1 cannot be ordered by solubility kinetic: over 35 µg/mL for the first, over 33.2 µg/mL for the second.

Compared with Cc1cccnc1NC(=O)Nc1ccccc1, Cc1ccccc1C(=O)NC(=S)Nc1ncccn1 is 3.8-fold higher in solubility kinetic: 4.1 µg/mL (≈ 18 µM) for the first, 15.6 µg/mL (≈ 57.3 µM) for the second.

Compared with CCCCNC(=O)c1cc(-c2ccc3c(c2)OCO3)on1, CN(C)C(=O)CSc1nnc(Cc2ccc3c(c2)OCO3)o1 is higher in solubility kinetic: 0.3 µg/mL (≈ 1.04 µM) for the first, over 48.2 µg/mL for the second.

O=S(=O)(c1cccc(-c2nnco2)c1)N1CCOCC1 and O=C(c1ccc(Cl)c(S(=O)(=O)N2CCOCC2)c1)N1CCCCCC1 cannot be ordered by solubility kinetic: over 44.3 µg/mL for the first, 52.2 µg/mL (≈ 135 µM) for the second.

First: Cc1ccc(NC(=O)COC(=O)C2(CC(=O)NC(C)(C)C)CCCC2)cc1C
Second: CCOC(=O)c1c(NC(C)=O)sc(C(=O)NC2CCCC2)c1C
The solubility kinetic of the first is 2.5-fold higher: 2.5 µg/mL (≈ 6.43 µM) for the first, 1 µg/mL (≈ 2.95 µM) for the second.

Compared with O=[N+]([O-])c1cc(Cl)ccc1NCCc1ccccn1, O=C(NNC(=O)c1cc([N+](=O)[O-])ccc1Cl)c1cccnc1 is higher in solubility kinetic: 28.7 µg/mL (≈ 103 µM) for the first, over 48.1 µg/mL for the second.

Going from Cc1ccc(NC(=O)c2cccnc2)cc1C to Cc1ccc(NC(=O)c2cc(=O)[nH]c3ccccc23)cc1C, the solubility kinetic falls from over 33.9 µg/mL to under 0.3 µg/mL.

C[N+](C)(C)c1ccccc1.[I-] and CC(NC(=O)CCl)c1ccccc1Br (stereo unspecified) cannot be ordered by solubility kinetic: over 39.5 µg/mL for the first, over 41.5 µg/mL for the second.

CS(=O)(=O)N(CC(=O)N1CCN(Cc2ccccc2)CC1)c1cccc(F)c1 and O=C(NCC(=O)N1CCN(Cc2ccccc2)CC1)c1cccs1 cannot be ordered by solubility kinetic: 57.9 µg/mL (≈ 143 µM) for the first, over 51.5 µg/mL for the second.

O=C1CN(c2ccccc2)C(=S)N1c1ccccc1.[Na+] and O=C(CN1C(=O)NC(c2ccccc2)(c2ccccc2)C1=O)N1CCCCC1 are within 1.5-fold of each other in solubility kinetic: 7.4 µg/mL for the first, 6.2 µg/mL (≈ 16.4 µM) for the second.

Compared with CC(CCc1ccccc1)NC(=O)CN1CCSc2ccccc21 (stereo unspecified), CCn1c(=O)c(C(=O)NCc2ccccc2)c(O)c2ccccc21 is lower in solubility kinetic: 20.1 µg/mL (≈ 59 µM) for the first, under 0.3 µg/mL for the second.

Compared with Cc1ccccc1CN1CCN(C(=O)CC(C)C)CC1, COc1ccc(C(=O)N2CCN(CCc3ccccn3)CC2)cc1.Cl is higher in solubility kinetic: 27 µg/mL (≈ 98.4 µM) for the first, over 54.3 µg/mL for the second.

Compared with Cc1nc(NCc2cccnc2)c2c3c(sc2n1)CC(C)CC3 (stereo unspecified), Clc1cccc(CNc2nc(-c3cccnc3)nc3ccccc23)c1 is 5-fold lower in solubility kinetic: 2.5 µg/mL (≈ 7.71 µM) for the first, 0.5 µg/mL (≈ 1.44 µM) for the second.

First: CC(=O)c1c(C)nc2ccc(C)cc2c1-c1ccccc1
Second: COc1ccc(NC(=O)c2cc(-c3ccccc3)on2)cc1OC
The solubility kinetic of the first is higher: 22.2 µg/mL (≈ 80.6 µM) for the first, under 0.3 µg/mL for the second.

COC(=O)c1ccc(OCC(=O)NC2CCCCCCC2)cc1 and Cl.O=[N+]([O-])c1ccc(OCC(O)CNC2CCCC2)cc1 (stereo unspecified) cannot be ordered by solubility kinetic: over 47.9 µg/mL for the first, over 47.5 µg/mL for the second.

CC(C)C(NS(=O)(=O)c1ccccc1)C(=O)N1CCCCCC1 (stereo unspecified) and O=C(CN1CCCCC1)c1c[nH]c2ccccc12 cannot be ordered by solubility kinetic: over 50.8 µg/mL for the first, over 36.3 µg/mL for the second.

Cc1ccc(CNC(=O)COC(=O)C2CC2)cc1 and CC1(C(=O)OCC(=O)NCc2ccc(Cl)cc2)CC1(Cl)Cl (stereo unspecified) cannot be ordered by solubility kinetic: over 37.1 µg/mL for the first, 52.5 µg/mL (≈ 150 µM) for the second.

Going from COc1ccc(/C=C2\C(=O)NCC(=O)N2C)cc1 to COc1ccc(N=c2ssnc2Cl)cc1, the solubility kinetic falls from 11.4 µg/mL (≈ 46.3 µM) to 0.4 µg/mL (≈ 1.55 µM) (28-fold).

COc1cccc(C(c2c(N)n(C)c(=O)n(C)c2=O)C(C)[N+](=O)[O-])c1 (stereo unspecified) and COCCn1c(C)cc(C(=O)COC(=O)c2ccc([N+](=O)[O-])o2)c1C cannot be ordered by solubility kinetic: over 52.3 µg/mL for the first, over 52.5 µg/mL for the second.

COCc1cc(OC(=O)N(C)C)nc(-c2ccccc2)n1 and CN(C)C(=O)c1ccc(NC(=O)c2ccccc2-c2ccccc2)cc1 cannot be ordered by solubility kinetic: over 43.1 µg/mL for the first, over 51.7 µg/mL for the second.

Going from O=C(Nc1ccc(Cl)cc1)c1ccco1 to Cc1ccc(NC(=O)N2CCCC(c3ccccc3)C2)cc1 (stereo unspecified), the solubility kinetic falls from 30.8 µg/mL (≈ 139 µM) to 1.6 µg/mL (≈ 5.43 µM) (19-fold).

CNc1nc2c(N)ncnc2n1[C@H]1O[C@@H](CO)[C@H](O)[C@@H]1O and CN1CCN(c2nc(NCc3ccco3)nc(N)c2[N+](=O)[O-])CC1 cannot be ordered by solubility kinetic: over 44.4 µg/mL for the first, over 50 µg/mL for the second.

Going from CCN(CC)S(=O)(=O)c1ccc(N2CCOCC2)c(NC(=O)c2cc(Cl)c3c(c2)OCO3)c1 to O=C1N=C(N2CCOCC2)S/C1=C/c1cc2c(cc1[N+](=O)[O-])OCO2, the solubility kinetic rises from 5.2 µg/mL (≈ 10.5 µM) to 44.8 µg/mL (≈ 123 µM) (8.6-fold).

First: N#C/C(=C\c1ccncc1)c1nc2ccccc2o1
Second: Cc1ccccc1NC(=O)c1ccc2nccnc2c1
The solubility kinetic of the first is 2.9-fold lower: 12.9 µg/mL (≈ 52.2 µM) for the first, 37.3 µg/mL (≈ 142 µM) for the second.

Going from O=C(O)CCCCCNC(=O)/C=C/c1ccco1 to COCCCNC(=O)c1cc2cc3cc(OC)ccc3nc2o1, the solubility kinetic rises from 26.2 µg/mL (≈ 104 µM) to over 47.2 µg/mL.

COC(=O)c1c(NC(=O)C(C)(C)C)csc1C and COc1ccc(OC)c(NC(=O)C2CC2c2ccccc2)c1 (stereo unspecified) are within 1.5-fold of each other in solubility kinetic: 18.1 µg/mL (≈ 70.9 µM) for the first, 18 µg/mL (≈ 60.5 µM) for the second.

COC(=O)Cn1cnc2c(oc3ccccc32)c1=O and COc1ccc(C2C(C(C)=O)=C(O)C(=O)N2c2ccccn2)cc1 (stereo unspecified) cannot be ordered by solubility kinetic: over 38.7 µg/mL for the first, over 48.7 µg/mL for the second.

Compared with O=C(c1nc(SCc2ccc([N+](=O)[O-])cc2)n2ccccc12)C(F)(F)F, Cn1c(COc2ccc(F)cc2)nc2ccccc21 is higher in solubility kinetic: under 0.3 µg/mL for the first, 36.3 µg/mL (≈ 142 µM) for the second.

N=c1oc2ccc3ccccc3c2cc1C(N)=S and COc1cc(SC)ccc1C(=O)NCCc1c[nH]c2ccccc12 are within 1.5-fold of each other in solubility kinetic: 7.2 µg/mL (≈ 28.3 µM) for the first, 6.1 µg/mL (≈ 17.9 µM) for the second.

Going from CC(C)(C)N(Cc1ccccc1)C(=O)COC(=O)C1CCCCC1 to CCOC(=O)C1CCN(C(=O)C(C)Sc2nnc3ccccn23)CC1 (stereo unspecified), the solubility kinetic rises from 24.4 µg/mL (≈ 73.6 µM) to over 54.4 µg/mL.

Compared with COc1ccc(OC)c(C2=NOC(C(=O)NCc3cccnc3)C2)c1 (stereo unspecified), CCOc1ccc(Br)cc1CNCc1cccnc1 is higher in solubility kinetic: 47.8 µg/mL (≈ 140 µM) for the first, over 48.2 µg/mL for the second.

First: O=C(Cn1cc(C(F)(F)F)ccc1=O)NC1CCCC1
Second: COc1ccc(NC(=O)CN2CCCC2)cc1
The solubility kinetic of the first is higher: over 43.2 µg/mL for the first, 34 µg/mL (≈ 145 µM) for the second.

Cl.NCC12CC3CC(C1)CC(c1ccc(Cl)cc1)(C3)C2 and COc1ccc(C(=O)NCC(=O)OCC(=O)NC23CC4CC(CC(C4)C2)C3)cc1 cannot be ordered by solubility kinetic: over 46.8 µg/mL for the first, over 60.1 µg/mL for the second.

Compared with O=[N+]([O-])c1cccc(-c2ccc(CN3CCN(c4ccccc4)CC3)o2)c1, O=C1c2ccccc2C(Nc2ccccc2)N1Cc1ccc2c(c1)OCO2 (stereo unspecified) is 1.6-fold lower in solubility kinetic: 1.4 µg/mL (≈ 3.85 µM) for the first, 0.9 µg/mL (≈ 2.51 µM) for the second.

COC(=O)C(Cc1c[nH]c2ccccc12)N1CCS(=O)(=O)CC1 (stereo unspecified) and CCn1c(-c2ccc[nH]c2=O)nc2ccccc21 cannot be ordered by solubility kinetic: over 50.5 µg/mL for the first, over 35.9 µg/mL for the second.

CSc1nc([O-])cc(=O)n1-c1ccc(F)cc1.[K+] and CC1CC(=O)Nc2ccccc2N1C(=O)Nc1ccc(F)cc1 (stereo unspecified) cannot be ordered by solubility kinetic: over 43.6 µg/mL for the first, over 47 µg/mL for the second.

CCn1cnc2cc(NCc3ccccc3Cl)ccc21 and CCOc1ccc(NC(=O)CCS(=O)(=O)c2ccc(C)cc2)cc1 cannot be ordered by solubility kinetic: over 42.9 µg/mL for the first, over 52.1 µg/mL for the second.

Cc1noc(C)c1-c1nc(CS(=O)(=O)c2ccc(F)cc2)no1 and CC(=O)N(Cc1ccccc1)Cc1nc2sc(C)c(C)c2c(=O)[nH]1 are within 1.5-fold of each other in solubility kinetic: 43.4 µg/mL (≈ 129 µM) for the first, 47.5 µg/mL (≈ 139 µM) for the second.

Compared with COc1ccc(NC(=S)Nc2cccc3cnccc23)cc1, Cn1cccc1/C=C1\SC(=Nc2cccc(O)c2)NC1=O is 1.8-fold lower in solubility kinetic: 9.9 µg/mL (≈ 32 µM) for the first, 5.6 µg/mL (≈ 18.7 µM) for the second.

First: Cl.O=C(CN1CCCCC1)c1ccc2c(c1)OCO2
Second: COc1cc2nc(Cl)nc(N3CCOCC3)c2cc1OC
The solubility kinetic of the first is higher: over 42.6 µg/mL for the first, 13.1 µg/mL (≈ 42.3 µM) for the second.
